According to patent EP0129409B1, “Thiazolo - and thiazinobenzimidazoles” (JOHN WYETH & BROTHER LIMITED, priority 1983, dated 1984):
Where two headings read alike, the source gives them in different places.

Legend:
[1] = antisecretory activity, test of Shay, Sun and Gruenstein; details: in vivo
stress-induced erosion = stress-induced erosion test of Senay and Levine (anti-ulcer activity); format: in vivo; details: decrease in ulcer formation as percentage of control score, rats, oral
Protocol: Anti-ulcer activity was determined by the stress-induced erosion test of Senay and Levine, Proc. Soc. Exp. Biol. Med., 124, 1221-3 (1967). The procedure used was as follows.
Male rats, weighing between 80 and 120 gms. were fasted overnight with water ad lib. The rats were then divided into groups of six and dosed orally with the test drug in the form of a solution or with the vehicle alone, 0.5% carboxymethylcellulose, in a volume of 10ml/kg.
After 30 minutes the rats were inserted into aluminium restraining tubes measuring 1⁵/₈ inches in diameter by 5 inches and placed in the cold (4±1°C) for 3 hours. Immediately after cold exposure the rats were killed with intracranial alcohol and their stomachs excised and opened along the greater curvature. Each stomach was washed gently free of contents with warm tap water and pinned out on a board. The condition of the gastric mucosa was then scored from 0 to 6 on the following scale:
The maximum possible score for each animal was 6 and for the group 36. Decrease in ulcer formation was calculated as a percentage of the control score, i.e. [formula] The statistical significance of the effect is assessed by Student's t-test.

H⁺/K⁺ ATPase = target: T1, H⁺/K⁺ ATPase (Oryctolagus cuniculus, UniProt P27112); experiment: inhibition of 14C-aminopyrine uptake in rabbit isolated gastric glands stimulated by DBcAMP or high K+; format: cell-based; details: % inhibition of the maximum response to the secretagogue; for inhibition at 10 µM: at 10⁻⁵M
T1 construct: Rabbit gastric glands are isolated from gastric mucosa from the corpus region of the stomach; from tissue; host or cells: rabbit isolated gastric glands (gastric mucosa, corpus region of the stomach)
T1 sequence (P27112 whole entry): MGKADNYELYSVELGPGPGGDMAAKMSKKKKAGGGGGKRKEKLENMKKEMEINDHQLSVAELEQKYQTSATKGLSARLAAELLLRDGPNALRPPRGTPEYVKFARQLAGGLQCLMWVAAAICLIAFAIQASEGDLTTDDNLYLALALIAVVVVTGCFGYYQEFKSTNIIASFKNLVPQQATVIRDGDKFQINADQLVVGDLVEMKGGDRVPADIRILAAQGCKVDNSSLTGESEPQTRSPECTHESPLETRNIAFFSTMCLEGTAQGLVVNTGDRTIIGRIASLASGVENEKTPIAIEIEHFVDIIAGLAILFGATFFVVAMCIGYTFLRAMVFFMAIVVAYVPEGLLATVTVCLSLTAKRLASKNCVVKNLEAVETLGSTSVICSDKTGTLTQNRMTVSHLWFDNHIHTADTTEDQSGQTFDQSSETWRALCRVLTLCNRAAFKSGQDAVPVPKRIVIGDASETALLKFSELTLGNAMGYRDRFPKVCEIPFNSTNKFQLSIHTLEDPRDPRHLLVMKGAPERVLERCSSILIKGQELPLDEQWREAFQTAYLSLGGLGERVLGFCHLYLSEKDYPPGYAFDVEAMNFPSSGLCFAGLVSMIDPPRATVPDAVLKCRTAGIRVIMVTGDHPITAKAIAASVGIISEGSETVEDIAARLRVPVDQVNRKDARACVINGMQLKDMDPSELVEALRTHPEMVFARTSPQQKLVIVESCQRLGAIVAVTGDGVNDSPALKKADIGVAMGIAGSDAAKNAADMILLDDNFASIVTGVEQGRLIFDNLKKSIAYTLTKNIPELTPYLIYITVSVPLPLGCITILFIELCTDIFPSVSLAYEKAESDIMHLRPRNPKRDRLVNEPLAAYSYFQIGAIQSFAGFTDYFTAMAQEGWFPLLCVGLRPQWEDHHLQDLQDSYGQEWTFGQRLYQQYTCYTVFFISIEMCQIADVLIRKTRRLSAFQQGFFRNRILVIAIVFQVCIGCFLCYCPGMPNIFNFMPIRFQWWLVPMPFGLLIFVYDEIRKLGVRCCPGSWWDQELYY
T1 sequence (P18597 whole entry partner): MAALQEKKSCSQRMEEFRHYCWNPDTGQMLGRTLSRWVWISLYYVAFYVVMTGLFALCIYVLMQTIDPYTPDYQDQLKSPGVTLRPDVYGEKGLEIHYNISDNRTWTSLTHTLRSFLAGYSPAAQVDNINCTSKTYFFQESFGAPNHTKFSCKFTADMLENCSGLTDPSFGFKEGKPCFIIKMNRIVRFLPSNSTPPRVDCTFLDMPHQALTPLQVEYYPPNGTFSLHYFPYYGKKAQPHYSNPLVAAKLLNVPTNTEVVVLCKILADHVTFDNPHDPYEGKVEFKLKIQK
Protocol: Compounds of formula I were also tested for anti-secretory activity by their ability to inhibit the highly specific proton transporting enzyme H⁺/K⁺ ATPase.
Potential H⁺/K⁺ ATPase inhibitors were evaluated by a technique involving the measurement of aminopyrine accumulation in rabbit isolated gastric glands. Aminopyrine accumulates in acid-secreting cells; therefore, uptake of aminopyrine is increased by secretagogues and an inhibitor of acid secretion will reduce the response to one or more secretagogues depending upon its site of action. […] The following test procedure is used: Rabbit gastric glands are isolated from gastric mucosa from the corpus region of the stomach by a method based on one described by Berglindh T., Obrink K.J., Acta Physiol. Scand.
Results are expressed as the % inhibition of the maximum response to the secretagogue induced by the test compound. An inhibitor of H⁺/K⁺ ATPase would be expected to reduce the response to both secretagogues.

[2] = at 10⁻⁴M, read-out: % Inhibition to stimulation by: DBcAMP
[3] = at 10⁻⁴M, read-out: % Inhibition to stimulation by: K⁺

inhibition at 100 µM (H⁺/K⁺ ATPase; [2]) [%]	inhibition at 100 µM (H⁺/K⁺ ATPase; [3]) [%]	Compound	Antisecretory activity [1]	also measured
–	–	Cc1cc2nc3n(c2cc1C)CC(c1ccccn1)S3 (centres unmarked) [Example 9, 2,3-Dihydro-6,7-dimethyl-2-(2-pyridyl)thiazolo[3,2-a]-benzimidazole]	particularly active	Inhibition (stress-induced erosion; Dose 100 mg/kg): 82%
–	–	6-Chloro-2,3-dihydro-2-(2-pyridyl)thiazolo[3,2-a]-benzimidazole-1-oxide and 7-chloro-2,3-dihydro-2-(2-pyridyl)-thiazolo[3,2-a]benzimidazole-1-oxide [Example 18]	particularly active	–
–	–	c1ccc(C2Cn3c(nc4ccccc43)S2)cc1 (centres unmarked) [Example 3, 2,3-Dihydro-2-phenylthiazolo[3,2-a]benzimidazole]	–	Inhibition (stress-induced erosion; Dose 100 mg/kg): 74%
50.5	–	Clc1cc2nc3n(c2cc1Cl)CC(c1ccccn1)S3 (centres unmarked) [Example 8, 6,7-Dichloro-2,3-dihydro-2-(2-pyridyl)thiazolo[3,2-a]-benzimidazole]	–	–
30	209	Cc1cc2nc3n(c2cc1C)CC(c1ccccn1)[S+]3[O-] (centres unmarked) [Example 13, 2,3-Dihydro-6,7-dimethyl-2-(2-pyridyl)thiazolo[3,2-a]-benzimidazole-1-oxide]	particularly active	–
22	381	c1ccc(-c2cccc(-c3cn4c(nc5ccccc54)s3)n2)cc1 [Example 37, 2-[2-(6-Phenylpyridyl)]thiazolo[3,2-a]benzimidazole]	–	–
56	142	CCc1ccc(-c2cn3c(nc4ccccc43)s2)nc1 [Example 27, 2-(2-(5-Ethylpyridyl))thiazolo[3,2-a]benzimidazole]	–	–
–	–	2,3-Dihydro-6-methyl-2-(2-pyridyl)thiazolo[3,2-a]-benzimidazole-1-oxide and 2,3-Dihydro-7-methyl-2-(2-pyridyl)thiazolo[3,2-a]benzimidazole-1-oxide [Example 10]	particularly active	–
–	–	2,3-Dihydro-6-methyl-2-(2-pyridyl)thiazolo[3,2-a]-benzimidazole and 2,3-Dihydro-7-methyl-2-(2-pyridyl)-thiazolo [3,2-a]benzimidazole [Example 7]	particularly active	–
–	–	6-Ethoxy-2-(2-pyridyl)thiazolo[3,2-a]-benzimidazole and 7-ethoxy-2-(2-pyridyl)thiazolo[3,2-a]benzimidazole [Example 24]	–	% Inhibition to stimulation by: DBcAMP (H⁺/K⁺ ATPase; at 10⁻⁴M, 100 µM): 68% at 10⁻⁴M; % Inhibition to stimulation by: K⁺ (H⁺/K⁺ ATPase; at 10⁻⁴M, 100 µM): 162% at 10⁻⁴M
90	187	Cc1ccc(C2Cn3c(nc4cc(Cl)c(Cl)cc43)S2)cn1 (centres unmarked) [Example 6, 6,7-Dichloro-2,3-dihydro-2-(6-methylpyrid-3-yl)thiazolo-[3,2-a]benzimidazole]	–	–
74	91	[O-][S+]1c2nc3ccccc3n2CC1c1ccccn1 (centres unmarked) [Example 2, 2,3-Dihydro-2-(2-pyridyl)thiazolo[3,2-a]benzimidazole-1-oxide]	particularly active	inhibition at 10 µM (H⁺/K⁺ ATPase; read-out: % Inhibition to stimulation by: DBcAMP): 73%; inhibition at 10 µM (H⁺/K⁺ ATPase; read-out: % Inhibition to stimulation by: K⁺): 26%
–	–	c1ccc(C2Cn3c(nc4ccccc43)S2)nc1 (centres unmarked) [Example 1, 2,3-Dihydro-2-(2-pyridyl)thiazolo[3,2-a]benzimidazole]	particularly active	Inhibition (stress-induced erosion; Dose 30 mg/kg): 86%; Inhibition (stress-induced erosion; Dose 100 mg/kg): 75%
